Entries after “also recorded” stand apart in the source; their conditions may differ.
Assays:
[1] = target: T1, recombinant human myeloperoxidase (Homo sapiens, UniProt P05164); test: Myeloperoxidase assay with recombinant enzyme; type: biochemical; conditions: 0.0125 μg/ml enzyme, 20 μM calpeptin
T1 construct: purchased R&D
T1 sequence (P05164 49-745): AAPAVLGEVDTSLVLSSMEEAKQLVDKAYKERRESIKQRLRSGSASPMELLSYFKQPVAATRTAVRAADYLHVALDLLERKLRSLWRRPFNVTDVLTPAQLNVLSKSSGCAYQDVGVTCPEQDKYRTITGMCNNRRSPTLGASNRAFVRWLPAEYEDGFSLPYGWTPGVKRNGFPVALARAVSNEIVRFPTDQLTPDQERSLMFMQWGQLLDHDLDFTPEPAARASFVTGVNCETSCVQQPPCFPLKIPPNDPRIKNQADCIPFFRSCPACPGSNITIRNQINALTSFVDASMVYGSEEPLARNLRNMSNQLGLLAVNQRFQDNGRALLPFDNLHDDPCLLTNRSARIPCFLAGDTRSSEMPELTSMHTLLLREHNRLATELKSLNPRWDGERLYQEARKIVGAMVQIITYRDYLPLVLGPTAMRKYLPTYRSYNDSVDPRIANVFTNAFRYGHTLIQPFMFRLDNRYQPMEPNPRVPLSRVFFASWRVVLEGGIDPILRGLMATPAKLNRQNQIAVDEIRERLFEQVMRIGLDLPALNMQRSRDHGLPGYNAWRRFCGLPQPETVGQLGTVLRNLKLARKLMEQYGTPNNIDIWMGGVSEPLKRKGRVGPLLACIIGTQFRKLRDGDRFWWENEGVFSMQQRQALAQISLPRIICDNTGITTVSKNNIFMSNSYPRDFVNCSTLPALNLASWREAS

[2] = test system: PMN transmigration across 16HBE airway epithelial monolayers; test: PMN transmigration across polarized 16HBE monolayers (myeloperoxidase readout); type: cell-based, human; conditions: 20 μM calpeptin
Description: Human PMNs were isolated according to standard techniques from venous blood from healthy consenting adults in accordance with a protocol approved by the Institutional Review Board of Human Subjects at Columbia University (IRB-AAAC5450). PMNs were isolated using dextran sedimentation and Hypaque-Ficoll (Sigma) density-gradient separation, followed by hypotonic lysis of erythrocytes as previously described (Boyum et al, 1968). Purified PMNs were resuspended in HBSS with Ca^2+ and Mg^2+ before use in migration experiments. Migration assays were performed across 16HBE monolayers plated on the underside of 3 μm transwells which were coated with minimal essential media containing 0.01 mg/ml fibronectin, 0.03 mg/ml bovine collagen type I, 0.1 mg/ml BSA. After allowing the cells to adhere overnight, transwells were flipped over and inserted into 24-well plates. 500 μl of media was added to the lower chamber (apical surface of the cell) and 100 μl of media added to the transwell (basolateral surface of the cell). When the cells became confluent, they were polarized with an air liquid interface for 5 days by removing the 500 μl of media in the lower chamber. Selected wells were preincubated for 30 min with 20 μM calpeptin in the apical and basolateral chambers. Monolayers were stimulated with 250 μl heat killed PAO1 (10^7 CFU) or […] […]

PMN myeloperoxidase = PMN myeloperoxidase (Homo sapiens, UniProt P05164); test: Myeloperoxidase activity of PMNs; conditions: 10^4 PMNs, 20 μM calpeptin
PMNs = test: PMN migration across a porous Transwell without epithelial cells; type: cell-based, human; set-up: dose or concentration left out as unconfirmed; conditions: in response to live PAO1, heat-killed PAO1 or fMLP
[3] = test system: PMN recruitment into the lung; test: Neonatal mouse model of intranasal P. aeruginosa PAO1 infection; type: in vivo
Procedure: Seven day old C57BL/6 wild type or tlr2^−/− mice (Jackson Laboratories) were intranasally inoculated with 10 μl PAO1 (10^8 CFU) (Tang et al, 1996). Control mice received 10 μl of PBS. Mice were pretreated with 20 mg/kg calpeptin or DMSO in PBS by intraperitoneal (i.p.) route 16 h and 2 h before intranasal inoculation and a third dose was administered by i.p. route 30 min post infection. Lungs were harvested 4 h after infection and cell suspensions used for PMN detection and immunoblotting. For neutrophil detection, lung cell suspensions were double stained with phycoerythrin (PE)-labeled anti-CD45 (to detect leukocytes) and fluorescein isothiocyanate (FITC)-labeled anti-Ly6G antibodies (to detect neutrophils) (BD Pharmingen) and analyzed by flow cytometry with a FACSCalibur using Cell Quest software (Becton Dickinson) (Gomez et al, 2004). Irrelevant, isotype-matched antibodies were used as a control. Cells were gated on the basis of their forward scatter and side scatter profile and analyzed for double expression of CD45 and Ly6G. Immunoblots were performed on 10 μg of protein obtained by lysing lung cells in OGP buffer as described herein for 1HAEo-cells. Mice protocol number AAAA5999 was approved by the Institutional Animal Care and Use Committee at Columbia University.

[4] = test system: PMN recruitment into the lung and airway lumen; test: Adult C57BL/6 mouse P. aeruginosa infection with bronchoalveolar lavage; type: in vivo; conditions: adult C57BL/6, i.p. calpeptin, 2 hr infection, versus vehicle
Procedure: To test the effects of calpain inhibition on the transmigration of PMNs into P. aeruginosa-infected airways, bronchoalveolar lavage (BAL) experiments were performed on adult C57BL/6 mice. Mice were treated with i.p. calpeptin or vehicle and intranasally infected with P. aeruginosa for 2 hr. PMNs from BAL or whole-lung suspension were quantified by flow cytometry. Compared to vehicle-treated controls, calpeptin-treated mice had 37% fewer PMNs recruited into the whole lung and 90% fewer into the airway lumen, indicating a more pronounced effect on the epithelial junctions (FIG. 8D). […] Thus, recruitment of PMNs into the murine lung and airway lumen in response to P. aeruginosa is facilitated by calpain activity and its effects on junctional proteins at the mucosal surface.

Structure (SMILES): CCCC[C@@H](C=O)NC(=O)[C@H](CC(C)C)NC(=O)OCc1ccccc1 [calpeptin, Z-Leu-Nle-CHO]
- Myeloperoxidase activity of recombinant human myeloperoxidase [1]: nor did calpeptin inhibit; also recorded: not inhibited
- Heat killed P. aeruginosa PAO1 induced PMN transmigration ([2]; p<0.001): inhibited
- P3C-induced PMN transmigration ([2]; p<0.05): inhibited
- Myeloperoxidase activity / production by PMNs (PMN myeloperoxidase): not inhibited
- Migration of PMNs across a porous Transwell (without epithelial cells) (PMNs): no effect; also recorded: not affected
- Migration of PMNs across a porous Transwell (without epithelial cells) (PMNs; listed as Calpeptin): did not directly inhibit
- Fewer PMNs recruited into the lung ([3]; 7-day old mice, i.p. calpeptin, 4 hours following intranasal P. aeruginosa, versus vehicle-treated, p<0.05): 31%
- Occludin and E-cadherin cleavage products in whole lung lysates ([3]; infected wild type mice, i.p. calpeptin versus vehicle): substantially decreased
- PMN recruitment in tlr2−/− animals ([3]; tlr2−/− pups, calpain inhibition): not further diminished
- Fewer PMNs recruited into the airway lumen (BAL) [4]: 90%
- Fewer PMNs recruited into the whole lung [4]: 37%

From patent US20110117106A1, “USES OF CALPAIN INHIBITORS TO INHIBIT INFLAMMATION” (priority 2008, published 2011)
